Patent US7034162B2, “Amorphous form of 3-[2-(dimethylamino) ethyl]-N-methyl-1H-indole-5-methane sulfonamide succinate (sumatriptan succinate)” (Dr. Reddy's Laboratories Limited, priority 2000, dated 2006)

Assay: thermal stability of the solid (stated property, no method described)
Assay type: physicochemical
Details: solid amorphous form; test conditions not given

SMILES: CNS(=O)(=O)Cc1ccc2[nH]cc(CCN(C)C)c2c1.O=C(O)CCC(=O)O [amorphous form of Sumatriptan succinate, 3-[2-(dimethylamino)ethyl]-N-methyl-1H-indole-5-methane sulfonamide succinate]
- thermal stability of the solid: thermally stable
